# Measured values taken from patent US20260083864A1, “CONTRAST AGENTS FOR USE IN DIAGNOSTIC COMPUTED TOMOGRAPHY IMAGING” (Bayer Aktiengesellschaft, priority 2022, published 2026).
# Tests used:
# [1] = Complex stability (transmetallation) against Zn2+ in phosphate buffer; details: 72 hours, 2.5 mM Zn^2+, 26 mM phosphate buffer, 37° C., pH 7.4
# Excerpt: If test compounds are instable under these conditions, transmetallation during this test would lead to the formation of the Zn^2+ complex of the test item, while Gd^3+ is released and precipitated as highly insoluble GdPO4.
# [2] = Relaxivity measurements at 1.41 T in water; assay type: physicochemical; details: 37° C., normalized to Gd
# In short: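 T1 by inversion recovery and T2 by CPMG at 1.41 T (60 MHz), 37° C, relaxation delay ≥5×T1. Three Gd concentrations between 0.05 and 2 mM; relaxivities derived from measured relaxation rates in water.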
# [3] = target: T1, OATP1B1 (Homo sapiens, UniProt Q9Y6L6); assay: Uptake into stable transfected OATP1B1 HEK 293 cells; assay type: cell-based; details: for Uptake into OATP1B1-HEK 293 cells: 40 min incubation, relative to RC1 (Gd-EOB-DTPA); for Inhibition Rifampicine: uptake into OATP1B1-HEK 293 cells
# T1 sequence (Q9Y6L6 1-691): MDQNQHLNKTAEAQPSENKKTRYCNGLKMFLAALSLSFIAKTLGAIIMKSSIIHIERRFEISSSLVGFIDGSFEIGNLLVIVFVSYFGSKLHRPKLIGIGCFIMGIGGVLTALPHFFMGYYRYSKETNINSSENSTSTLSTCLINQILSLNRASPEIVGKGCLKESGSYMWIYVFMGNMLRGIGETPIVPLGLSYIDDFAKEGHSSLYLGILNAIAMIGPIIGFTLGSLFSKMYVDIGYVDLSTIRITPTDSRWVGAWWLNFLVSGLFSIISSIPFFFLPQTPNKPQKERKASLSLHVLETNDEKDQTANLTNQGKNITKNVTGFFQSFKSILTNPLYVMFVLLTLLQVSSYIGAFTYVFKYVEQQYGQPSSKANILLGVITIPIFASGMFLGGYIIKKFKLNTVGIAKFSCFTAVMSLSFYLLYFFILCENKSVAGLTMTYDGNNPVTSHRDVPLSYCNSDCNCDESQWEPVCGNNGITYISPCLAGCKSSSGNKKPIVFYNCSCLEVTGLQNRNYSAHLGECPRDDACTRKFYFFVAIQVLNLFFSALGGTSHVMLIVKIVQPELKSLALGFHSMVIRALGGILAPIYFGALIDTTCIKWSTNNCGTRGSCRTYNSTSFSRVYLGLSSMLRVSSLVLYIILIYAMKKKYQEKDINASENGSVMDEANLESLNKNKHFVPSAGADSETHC
# In short: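 Stably transfected OATP1B1 HEK293 cells incubated 40 min without shaking with test item at 100 µM final in transport buffer, in triplicate. Cells then washed with cold PBS; gadoxetate run on the same plate as reference.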
# [4] = test system: plasma proteins; assay: Plasma protein binding, equilibrium dialysis, rat; assay type: in vitro ADME
# Excerpt: The binding of Example 1 and 15 to plasma proteins of different species (human, dog, monkey, rabbit, mouse and rat) was investigated in vitro by using equilibrium dialysis in reusable 96-well Micro-Equilibrium Dialysis Devices (ht dialysis) (Banker M J et al. J Pharm Sci. 2003 May; 92 (5): 967-74).
# [5] = test system: cryopreserved human hepatocytes; assay: In vitro metabolism in cryopreserved human hepatocytes; assay type: in vitro ADME; details: 5 μM, incubation time of 4 h, LC-MS
# Method: (§1) The in vitro metabolism was investigated in cryopreserved human and rat hepatocytes (Li A P et al. Biomark Med. 2014; 8 (2): 173-83). Cryopreserved human (WSS) and rat hepatocytes (Wistar rat, RWH137, male) were incubated with the test compound (incubation concentration: 5 μM). The amount of remaining compound was related to the initial amount (0 mins). The cells were removed from the liquid nitrogen. The vial was immersed in the 37° C. water bath and shaken gently (by hand) until most of the ice was melted (approx. 90 sec.). The cell suspensions were transferred e.g. into a 50 ml-centrifuge tube and 12 ml of 4° C.-cold buffer (e.g. Krebs-Henseleit or Williams Medium E) were added. The cell suspension was centrifuged at 50×g for 5 mins. The buffer was aspirated, and the cells resuspended in 5 ml of fresh warm buffer. An aliquot of 50 μl was mixed with 200 μl trypan blue to determine the cell density and cell viability. The cell suspension was adjusted to a final concentration of 0.8 Mio hepatocytes per mL. The incubations were performed in 96 well plates (1.2 ml volume, negative control without cells). The 0 min samples were stopped immediately by adding 250 μl of ice-cold methanol. All other samples are shaken on an Heidolph®-rotor during incubation in a 37° C. incubator for the indicated period of 4 hours. Aliquots of the samples were used for analysis. All samples were analyzed using LC-MS at 0 h, 1 h, 2 h and 4 h (exemplary LC-MS: Accucore C-18 column, 30° C., 0.35 mL/min flow rate, solvent A: 10 mM Ammonium formate+5% MeCN, pH4 and solvent B: MeCN+0.1% formic acid; […] injection volume, gradient: 90% A, 10% B, 5 min 70% A and 30% B, 8 min 0% A and 100% B).
# [6] = test system: cryopreserved rat hepatocytes; assay: In vitro metabolism in cryopreserved rat hepatocytes; assay type: in vitro ADME; details: 5 μM, incubation time of 4 h, LC-MS
# Method: as §1
# [7] = Partition coefficient (log P butanol/buffer); assay type: physicochemical; details: 1-butanol / 50 mM Tris-HCl, pH 7.4, room temperature
# [8] = test system: freshly isolated rat hepatocytes; assay: Uptake into freshly isolated rat hepatocytes; details: for Uptake rat hepatocytes: 100 μmol Gd/L, 10 min, 37° C., relative to RC1 (Gd-EOB-DTPA); for Inhibition Rifampicine: rat hepatocyte uptake, test item and Rifampicine 1:1, each 100 μM
Compound,Transmetallation stability [1],r1 water [2],Uptake into OATP1B1-HEK 293 cells [3],Inhibition Rifampicine [3],Fraction unbound fu [4],Metabolites detected [5],Metabolites detected [6],Log P (partition coefficient butanol/buffer) [7],Uptake rat hepatocytes [8],Inhibition Rifampicine [8]
"CCOc1ccc(CCOCC(C(=O)O)N2CCN(CC(=O)[O-])CCN(CC(=O)[O-])CCN(CC(=O)[O-])CC2)cc1.[Gd+3] (centres unmarked) [Example 1, gadolinium 2,2′,2″-(10-{1-carboxy-2-[2-(4-ethoxyphenyl)ethoxy]ethyl}-1,4,7,10-tetraazacyclododecane-1,4,7-triyl)triacetate]",99%,4.1 L/mmol/s,187 % of RC1,92 % inhibition,92%,No metabolites were detected,No metabolites were detected,−0.98,29 % of RC1,93 % inhibition
"CCOCCOCCOc1ccc(CC(C(=O)O)N2CCN(CC(=O)[O-])CCN(CC(=O)[O-])CCN(CC(=O)[O-])CC2)cc1.[Gd+3] (centres unmarked) [Example 2, gadolinium 2,2′,2″-{10-[1-carboxy-2-{4-[2-(2-ethoxyethoxy)ethoxy]phenyl}ethyl]-1,4,7,10-tetraazacyclododecane-1,4,7-triyl}triacetate]",100%,4.4 L/mmol/s,324 % of RC1,45 % inhibition,>95%,No metabolites were detected,No metabolites were detected,−1.63,52 % of RC1,85 % inhibition
"CCOCCOCCOc1ccc(CCC[C@@H](C(=O)O)N2CCN([C@@H](CO)C(=O)[O-])CCN([C@@H](CO)C(=O)[O-])CCN([C@@H](CO)C(=O)[O-])CC2)cc1.[Gd+3] [Example 15, gadolinium (2S,2′S,2″S)-2,2′,2″-{10-[(1S)-1-carboxy-4-{4-[2-(2-ethoxyethoxy)ethoxy]phenyl}butyl]-1,4,7,10-tetraazacyclododecane-1,4,7-triyl}tris(3-hydroxypropanoate)]",101%,5.1 L/mmol/s,,91 % inhibition,71%,No metabolites were detected,No metabolites were detected,−1.00,109 % of RC1,94 % inhibition
"CCOc1ccc(CC(CN(CCN(CC(=O)[O-])CC(=O)[O-])CC(=O)[O-])N(CC(=O)[O-])CC(=O)[O-])cc1.[Gd+3].[Na+].[Na+] (centres unmarked) [RC1, gadoxetate disodium, reference compound]",44%,,100 % of RC1,81 % inhibition,,,,−2.12,100 % of RC1,97 % inhibition
